Here are results for 28 compounds from patent publication US6500817B1, “Thiazolyl urea derivatives and their utilization as antiviral agents” (Bayer Aktiengesellschaft, priority 1999, dated 2002).

The test system of one series is HSV-1 F. Briefly: anti-HSV screening test (cytopathogenic effect, fluorescein diacetate fluorescence readout) in Vero cells. The format is cell-based. The note with it: read-out: IC50 HSV-1 F/Vero. The procedure: (§1) HSV (HSV-1 Walki, HSV-1F or HSV-2G) was replicated on Vero cells (ATCC CCL-81) under the following conditions: the cells were grown in M199 medium (5% fetal calf serum, 2 mM glutamine, 100 IU/ml penicillin, 100 μg/ml streptomycin) in cell culture bottles at 37° C. and 5% CO2. The cells were split 1:4 on each of two occasions each week. For the infection, the medium was removed, and the cells were washed with Hank's solution, detached with 0.05% trypsin, 0.02% EDTA (Seromed L2143) and incubated at a density of 4×10^5 cells per ml under the conditions mentioned above for 24 hours. The medium was then removed, and the virus solution was added at an m.o.i. of <0.05 in a volume of 2 ml per 175 cm^2 of surface area. After incubation under the conditions mentioned for one hour, the medium was made up to a volume of 50 ml per 175 cm^2 bottle. […] The virus was released by freezing (−80° C.) and thawing (37° C.) twice. The cell debris was removed by centrifugation (300 g, 10 min, 4° C.) and the supernatant was frozen in aliquots at −80° C.
(§2) The anti-HSV effect was determined in a screening test system in 96-well microtitre plates with the assistance of various cell lines of neuronal, lymphoid and epithelial origin, such as, for example, Vero (African green monkey kidney cell line), MEF (murine embryonic fibroblasts), HELF (human embryonic fibroblasts), NT2 (human neuronal cell line) or Jurkat (human lymphoid T-cell line).
(§3) The substances dissolved (50 mM) in DMSO (dimethyl sulphoxide) are investigated on microtitre plates (for example 96-well MTP) in final concentrations of 250-0.5 μM (micromolar) in duplicate determinations (4 substances/plate). For potent substances, the dilutions are continued over several plates as far as 0.5 pM (picomolar). Toxic and cytostatic effects of the substance are also recorded. After the appropriate dilutions of the substance (1:2) on the microtitre plate, a suspension of cells (1×10^4 cells per well) such as, for example, Vero cells in M199 (medium 199) with 5% fetal calf serum, 2 mM glutamine and optionally 100 IU/ml penicillin and 100 μg/ml streptomycin or MEF cells in EMEM (Eagle's minimum essential medium) with 10% fetal calf serum, 2 mM glutamine and optionally 100 IU/ml penicillin and 100 μg/ml streptomycin, or HELF cells in EMEM with 10% fetal calf serum, 2 mM glutamine and optionally 100 IU/ml penicillin and 100 μg/ml streptomycin, or NT2 and Jurkat cells in DMEM ([…] glucose plus pyridoxine) with 10% fetal calf serum, 2 mM glutamine, 1 mM sodium pyruvate, nonessential amino acids and optionally 100 IU/ml penicillin and 100 μg/ml streptomycin is put in each well, and the cells in the relevant wells are infected with an appropriate amount of virus (HSV-1 F or HSV-2 G with an m.o.i (multiplicity of infection) of 0.0025 for HELF, Vero and MEF cells and with an m.o.i of 0.1 for NT2 and Jurkat cells). The plates are then incubated at 37° C. in a CO2 incubator (5% CO2) for several days. […] The plates are initially evaluated optically using a microscope and then analysed with a fluorescent dye. For this purpose, the cell culture supernatant is aspirated out of all the wells of the MTP and charged with 200 μl of PBS washing solution.
In general terms: Damage to the host cells serves as the signal in cytopathic effect assays.

Another series deals with HSV-2 G. Described as above. The note with it: read-out: IC50 HSV-2 G/Vero. In kind it is cell-based. The procedure:
as §1, §2, §3

The subject of the next series is HSV. Briefly: in vivo effect: survival of intranasally HSV-infected mice. Set-up: species or system strain BALB/cABom. Particulars: Mus musculus; female BALB/cABom mice, intranasal infection 5×10^4 pfu; treatment from 6 hours after infection, 3 times a day for 5 days; from graphs of survival; read-out: ED50 (50% of the animals survive at this dose). The procedure:
6-week old female mice, strain BALB/cABom, were purchased from a commerical breeder (Bomholtgard Breeding and Research Centre Ltd.).
The animals were anaesthetized with diethyl ether (Merck) in a sealed glass vessel. 50 μl of a dilution of the virus stock (infectious dose 5×10^4 pfu) were introduced into the nose of the anaesthetized animals with an Eppendorf pipette. This infectious dose leads to death of 90-100% of the animals after an average of between 5 and 8 days due to a generalized infection with prominent respiratory and central nervous symptoms.
6 hours after the infection, the animals were treated with doses of 0.1-100 mg/kg of body weight 3 times a day at 7.00 h, 14.00 h and 19 h over a period of 5 days. The substances were dissolved in DMSO and resuspended in Tylose/PBS (Hoechst) (final concentration 1.5% DMSO, 0.5% Tylose in PBS).
After the last administration, the animals were observed further and the times of death were recorded.

The mark [1] stands for this setting: Human alphaherpesvirus 1, Vero cells infected with HSV-1 F, m.o.i. 0.0025, half-maximum fluorescence intensity in relation to the uninfected cell control.
Setting [2] is: Human alphaherpesvirus 2, Vero cells infected with HSV-2 G, m.o.i. 0.0025, half-maximum fluorescence intensity in relation to the uninfected cell control.

Like-named read-outs stand apart in the source and are kept apart here.

`CNS(=O)(=O)c1sc(N(C)C(=O)Nc2ccc(N3CCCC3)cc2)nc1C` [Example 94]: the IC50 in the series on HSV-1 F (setting [1]) is 20 nM; with HSV-2 G (setting [2]), 50 nM.
As a reminder, the ED50 is the midpoint of the dose-response relation. Regarding `CNS(=O)(=O)c1sc(N(C)C(=O)Nc2ccc(N3CCOCC3)cc2)nc1C` [Example 43], the IC50 with HSV-1 F (Human alphaherpesvirus 1, Vero) worked out at 500 nM; in the series on HSV-2 G (Human alphaherpesvirus 2, Vero), 1500 nM. For the same compound, the ED50 in the series on HSV was in the range of 30 to 40 mg/kg.
With `CCOc1ccc(NC(=O)N(CCN(C)C)c2nc(C)c(S(=O)(=O)NC)s2)cc1` [Example 2, 2-{[2-(Dimethylamino)ethyl][(4-ethoxyanilino)carbonyl]amino}-N,4-dimethyl-1,3-thiazole-5-sulphonamide], the IC50 with HSV-1 F (setting [1]) turned out to be 200 nM; in the series with HSV-2 G (setting [2]), 1000 nM.
A word on the melting point: it is the temperature of the solid-liquid transition. For `CCCOc1ccc(NC(=O)N(C)c2nc(C)c(S(=O)(=O)NC)s2)cc1`, the melting point stood at 161 °C.
As for `CCOc1ccc(NC(=O)N(CCO)c2nc(C)c(S(=O)(=O)N(C)C)s2)cc1`, the melting point was 160 °C.
Consider `CCCN(C(=O)Nc1ccc(OCC)cc1)c1nc(C)c(S(=O)(=O)NC)s1`, for which the melting point stood at 154 °C.
`CCOc1ccc(NC(=O)N(C)c2nc(C)c(S(=O)(=O)NCc3cccnc3)s2)cc1` returned a melting point of 158 °C.
Same read-out and setting: under `CNS(=O)(=O)c1sc(N(CCOC)C(=O)Nc2ccc(N3CCOCC3)cc2)nc1C` stands 188 °C; under `CCOc1ccc(N(C)C(=O)Nc2nc(C)c(S(=O)(=O)N(C)C)s2)cc1`, 118 °C; under `CN(C(=O)Nc1ccc(OC(F)(F)C(F)F)cc1)c1nc(Cl)c(S(=O)(=O)N(C)C)s1`, 168 °C.
Regarding `CCOc1ccc(NC(=O)N(Cc2cccnc2)c2nc(C)c(S(=O)(=O)NC)s2)cc1`, the melting point was 212 °C.
For the compound `COC(=O)c1ccc(N(C)C(=O)N(C)c2nc(Cl)c(S(=O)(=O)N(C)C)s2)cc1`, the melting point worked out at 168 °C.
Still for that read-out and setting: under `CN(C(=O)Nc1ccc(N2CCOCC2)c(Cl)c1)c1nc(Cl)c(S(=O)(=O)N(C)C)s1` stands 203 °C.
`CCOc1ccc(NC(=O)N(CCN(C)C)c2nc(C)c(S(=O)(=O)N(C)C)s2)cc1` showed a melting point of 163 °C.
`CCOc1ccc(NC(=O)N(CCN(C)C)c2nc(C)c(S(N)(=O)=O)s2)cc1` came in with a melting point of 162 °C.
Consider `COCCN(C(=O)Nc1ccc(-c2ccccc2)cc1)c1nc(C)c(S(N)(=O)=O)s1` [151], for which the melting point came out at 167 °C.
Regarding `CCOC(=O)N1CC2CCN(c3ccc(NC(=O)N(C)c4nc(S(=O)(=O)NC)c(C)s4)cc3)C2C1` (stereo not shown), the melting point was 153 to 154 °C.
Same read-out and setting: under `CCCN(C(=O)Nc1ccc(-c2ccccc2)cc1)c1nc(C)c(S(N)(=O)=O)s1` stands 144 °C.
The compound `Cc1nc(N(C)C(=O)Nc2ccc(N3CCCC3)cc2)sc1S(N)(=O)=O` had a melting point of 209 °C.
Compound `CCOc1ccc(NC(=O)N(CCN(C)C)c2nc(C)c(S(=O)(=O)NC3CC3)s2)cc1` gave a melting point of 168 °C.
Turning to `CCOc1ccc(NC(=O)N(Cc2cccnc2)c2nc(C)c(S(N)(=O)=O)s2)cc1`, the melting point is 193 °C.
For `CNS(=O)(=O)c1sc(N(C)C(=O)Nc2ccc(N3CCC(NC(=O)OC(C)(C)C)C3)cc2)nc1C` (stereo not shown), the melting point is 188 to 189 °C (dec.).
Still for that read-out and setting: for `CCOc1ccc(NC(=O)N(CCOC)c2nc(C)c(S(=O)(=O)NC3CC3)s2)cc1` the value was 164 °C.
`CNS(=O)(=O)c1sc(N(C)C(=O)Nc2ccc(-c3ccccc3)cc2)nc1C` [Example 123]: the melting point worked out at 210 °C. The IC50 in the series with HSV-1 F (setting [1]) turned out to be 1 nM. Also, the IC50 with HSV-2 G (setting [2]) came out at 5 nM.
`CN(C(=O)Nc1ccc(N2CCOCC2)cc1)c1nc(Cl)c(S(=O)(=O)N(C)C)s1` [9]: the melting point stood at 210 °C.
On to `CNS(=O)(=O)c1sc(N(C)C(=O)Nc2ccc(-c3ccccc3C)cc2C)nc1C`, for which the melting point was determined as 148 °C.
With `CNS(=O)(=O)c1sc(N(CCCN2CCN(C)CC2)C(=O)Nc2ccc(-c3ccccc3)cc2)nc1C`, the melting point is 188 °C.
Still for that read-out and setting: under `CNS(=O)(=O)c1sc(NC(=O)Nc2ccc(-c3ccccc3)cc2)nc1C` stands 199 °C.
